Values of other authors in paper PMC5760531, “Action Potential Recording and Pro-arrhythmia Risk Analysis in Human Ventricular Trabeculae” (Frontiers in Physiology, 2018).

Columns and labels:
hERG = settings: read-out: IC50 for hERG; previous experiments; ref Qu and Vargas, 2015; cited from earlier work
[1] = cited from earlier work
Nav1.5 = system: Nav1.5; set-up: method as in Qu and Vargas, 2015; settings: previous experiments; ref Qu and Vargas, 2015; cited from earlier work

In the case of `Nc1nnc(-c2cccc(Cl)c2Cl)c(N)n1` [LAMOTRIGINE, Lamotrigine], the IC50 (hERG) is given as 110 µM, the “Free ETPC” value ([1]; human free (unbound) effective therapeutic plasma concentration used to calculate multiples) is given as 17 µM and the free therapeutic exposure ([1]; human, ref Dixon et al., 2008) is given as “approximately 17 μM”. The IC50 (Nav1.5) was 40 µM.
